The record followed here is PMC7733237 (Organic & biomolecular chemistry, 2009).

The IC50 is the concentration needed to halve the response being measured.

The test system of the data set is PBM cells. Briefly: Cytotoxicity in uninfected PHA-stimulated human PBM cells. The conditions noted are these: read-out: Cytotoxicity (IC50) PBM cells, 6 days, cell growth.

Consider `Cc1cn([C@H]2C[C@H](N=[N+]=[N-])[C@@H](CO)O2)c(=O)[nH]c1=O` [AZT, 3′-azido-3′-deoxythymidine], for which the IC50 was above 100 µM.
